Assay results: patent publication US12595239B2, “Substituted isoxazoline derivatives” (BASF SE, priority 2021, dated 2026)

How the values were obtained:
Format in all cases: in vivo
Plutella xylostella = experiment: B.6 Diamond Back Moth, cabbage leaf disc dip test; conditions: foliar, 3rd instar larvae, 72 hours after treatment, read-out: mortality in comparison with untreated controls
Procedure: The active compound was dissolved at the desired concentration in a mixture of 1:1 (vol:vol) distilled water:acetone. Surfactant (Kinetic) was added at a rate of 0.01% (vol/vol). The test solution was prepared at the day of use. Cabbage leaf discs (60 mm in diameter) were dipped in test solution and air-dried. Treated leaves were placed in petri dishes lined with moistened filter paper and inoculated with ten 3rd instar larvae. Mortality was recorded 72 hours after treatment. Feeding damages were also recorded using a scale of 0-100%.

Dichromothrips corbetti = experiment: B.7 Orchid Thrips, floral-immersion test; conditions: adult thrips, 72 hours after treatment, read-out: mortality in comparison with untreated controls
Procedure: Dichromothrips corbetti adults used for bioassay were obtained from a colony maintained continuously under laboratory conditions. For testing purposes, the test compound was diluted in a 1:1 mixture of acetone:water (vol:vol), plus Kinetic at a rate of 0.01% v/v.
Thrips potency of each compound was evaluated by using a floral-immersion technique. Each orchid petal was dipped into treatment solution and allowed to dry in Petri dishes. Treated petals were placed into individual re-sealable plastic along with about 20 adult thrips. All test arenas were held under dark condition and a temperature of about 28° C. for duration of the assay. The percent mortality was recorded 72 hours after treatment.

Heliothis virescens = experiment: B.4 Tobacco Budworm, microtiter plate diet test; conditions: 120 h, egg and larval mortality, 5 days, read-out: mortality in comparison with untreated controls
Procedure: For evaluating control of Tobacco Budworm, the test unit consisted of 96-well-microtiter plates containing an insect diet and 15-25 H. virescens eggs. The compounds were formulated using a solution containing 75% v/v water and 25% v/v DMSO. Different concentrations of formulated compounds were sprayed onto the insect diet at 10 μl, using a custom-built micro atomizer, at two replications. After application, microtiter plates were incubated at about 28±1° C. and about 80±5% relative humidity for 5 days. Egg and larval mortality was then visually assessed.

Anthonomus grandis = experiment: B.1 Boll weevil (Anthonomus grandis), 96-well microtiter plate diet test; conditions: 120 h, egg and larval mortality, 5 days, read-out: mortality in comparison with untreated controls
Procedure: For evaluating control of boll weevil, the test unit consisted of 96-well-microtiter plates containing an insect diet and 5-10 A. grandis eggs.
The compounds were formulated using a solution containing 75% v/v water and 25% v/v DMSO. Different concentrations of formulated compounds were sprayed onto the insect diet at 5 μl, using a custom-built micro atomizer, at two replications.
After application, microtiter plates were incubated at about 25±1° C. and about 75±5% relative humidity for 5 days. Egg and larval mortality were then visually assessed.

Aedes aegypti = experiment: whole plant or invertebrate; conditions: 48 h, larval mortality, 2 days, read-out: mortality in comparison with untreated controls
Procedure: For evaluating control of Yellow Fever Mosquito, the test unit consisted of 96-well-microtiter plates containing 200 μl of tap water per well and 5-15 freshly hatched A. aegypti larvae. The active compounds were formulated using a solution containing 75% (v/v) water and 25% (v/v) DMSO. Different concentrations of formulated compounds or mixtures were sprayed onto the insect diet at 2.5 μl, using a custom-built micro atomizer, at two replications.
After application, microtiter plates were incubated at 28±1° C., 80±5% RH for 2 days. Larval mortality was then visually assessed.

Myzus persicae = experiment: B.3 Green Peach Aphid (mixed life stages), systemic artificial diet test; conditions: 72 h, treated aphid diet, 3 days, read-out: mortality in comparison with untreated controls
Text: For evaluating control of Green Peach Aphid through systemic means the test unit consisted of 96-well-microtiter plates containing liquid artificial diet under an artificial membrane. The compounds were formulated using a solution containing 75% v/v water and 25% v/v DMSO. Different concentrations of formulated compounds were pipetted into the aphid diet, using a custom-built pipette, at two replications. After application, 5-8 adult aphids were placed on the artificial membrane inside the microtiter plate wells. The aphids were then allowed to suck on the treated aphid diet and incubated at about 23±1° C. and about 50±5% relative humidity for 3 days. Aphid mortality and fecundity was then visually assessed.

Spodoptera eridania = experiment: B.11 Southern Armyworm 2nd instar larvae, lima bean foliar spray test; conditions: 96 h, 4 days after treatment, read-out: mortality in comparison with untreated controls
Procedure: The active compounds were formulated by a Tecan liquid handler in 100% cyclohexanone as a 10′000 ppm solution supplied in tubes. The 10′000 ppm solution was serially diluted in 100% cyclohexanone to make interim solutions. These served as stock solutions for which final dilutions were made by the Tecan in 50% acetone:50% water (v/v) into 10 or 20 ml glass vials. A nonionic surfactant (Kinetic®) was included in the solution at a volume of 0.01% (v/v). The vials were then inserted into an automated electrostatic sprayer equipped with an atomizing nozzle for application to plants/insects. Lima bean plants (variety Sieva) were grown 2 plants to a pot and selected for treatment at the 1st true leaf stage. Test solutions were sprayed onto the foliage by an automated electrostatic plant sprayer equipped with an atomizing spray nozzle. The plants were dried in the sprayer fume hood and then removed from the sprayer. Each pot was placed into perforated plastic bags with a zip closure. Ten to 11 armyworm larvae were placed into the bag and the bags zipped closed. Test plants were maintained in a growth room at about 25° C. and about 20-40% relative humidity for 4 days, avoiding direct exposure to fluorescent light (14:10 light:dark photo-period) to prevent trapping of heat inside the bags. Mortality and reduced feeding were assessed 4 days after treatment, compared to untreated control plants.

Bemisia argentifolii = experiment: B.12 Silverleaf Whitefly (adults), cotton plant spray test; conditions: 72 h, 3 days after treatment, read-out: mortality in comparison with untreated controls
Procedure: The active compounds were formulated by a Tecan liquid handler in 100% cyclohexanone as a 10,000-ppm solution supplied in tubes. The 10,000-ppm solution was serially diluted in 100% cyclohexanone to make interim solutions. These served as stock solutions for which final dilutions were made by the Tecan in 50% acetone:50% water (v/v) into 5 or 10 ml glass vials. A nonionic surfactant (Kinetic®) was included in the solution at a volume of 0.01% (v/v). The vials were then inserted into an automated electrostatic sprayer equipped with an atomizing nozzle for application to plants/insects. Cotton plants at the cotyledon stage (one plant per pot) were sprayed by an automated electrostatic plant sprayer equipped with an atomizing spray nozzle. The plants were dried in the sprayer fume hood and then removed from the sprayer. Each pot was placed into a plastic cup and about 10 to 12 whitefly adults (approximately 3-5 days old) were introduced. The insects were collected using an aspirator and a nontoxic Tygon® tubing connected to a barrier pipette tip. The tip, containing the collected insects, was then gently inserted into the soil containing the treated plant, allowing insects to crawl out of the tip to reach the foliage for feeding. Cups were covered with a reusable screened lid. Test plants were maintained in a growth room at about 25° C. and about 20-40% relative humidity for 3 days, avoiding direct exposure to fluorescent light (14:10 light:dark photoperiod) to prevent trapping of heat inside the cup. Mortality was assessed 3 days after treatment, compared to untreated control plants.

O=C(Nc1ccc(F)c(NC(=O)C(F)F)c1F)c1cc(NC2=NOC(c3cc(Cl)cc(Cl)c3)(C(F)(F)F)C2)ccc1Cl (stereo not shown) [I-6, 2-chloro-5-[[5-(3,5-dichlorophenyl)-5-(trifluoromethyl)-4H-isoxazol-3-yl]amino]-N-[3-[(2,2-difluoroacetyl)amino]-2,4-difluoro-phenyl]benzamide]
≥ 75%: mortality at 300 ppm (Plutella xylostella) | mortality at 300 ppm (Dichromothrips corbetti)

O=C(Nc1ccc(F)cc1F)c1cc(NC2=NOC(c3cc(Cl)cc(Cl)c3)(C(F)(F)Cl)C2)ccc1Cl (stereo not shown) [I-131, 2-chloro-5-[[5-[chloro(difluoro)methyl]-5-(3,5-dichlorophenyl)-4H-isoxazol-3-yl]amino]-N-(2,4-difluorophenyl)benzamide]
≥ 75%: mortality at 2500 ppm (Heliothis virescens) | mortality at 2500 ppm (Anthonomus grandis) | mortality at 300 ppm (Plutella xylostella) | mortality at 2500 ppm (Aedes aegypti) | mortality at 300 ppm (Dichromothrips corbetti) | mortality at 2500 ppm (Myzus persicae) | mortality at 300 ppm (Spodoptera eridania)

O=C(N[C@@H]1CON(CC(F)(F)F)C1=O)c1cc(NC2=NOC(c3cc(Cl)c(F)c(Cl)c3)(C(F)(F)F)C2)ccc1Cl (stereo partly drawn) [I-114, 2-chloro-5-[[5-(3,5-dichloro-4-fluoro-phenyl)-5-(trifluoromethyl)-4H-isoxazol-3-yl]amino]-N-[(4R)-3-oxo-2-(2,2,2-trifluoroethyl)isoxazolidin-4-yl]benzamide]
≥ 75%: mortality at 300 ppm (Bemisia argentifolii) | mortality at 300 ppm (Plutella xylostella) | mortality at 300 ppm (Dichromothrips corbetti) | mortality at 300 ppm (Spodoptera eridania)

O=C(Nc1ccc(F)cc1F)c1cccc(NC2=NOC(c3cc(Cl)cc(Cl)c3)(C(F)(F)F)C2)c1F (stereo not shown) [I-48, 3-[[5-(3,5-dichlorophenyl)-5-(trifluoromethyl)-4H-isoxazol-3-yl]amino]-N-(2,4-difluoro-phenyl)-2-fluoro-benzamide]
≥ 75%: mortality at 300 ppm (Plutella xylostella) | mortality at 300 ppm (Dichromothrips corbetti) | mortality at 300 ppm (Spodoptera eridania)

O=C(NC1CN(S(=O)(=O)C(F)F)C1)c1cc(NC2=NOC(c3cc(Cl)c(F)c(Cl)c3)(C(F)(F)F)C2)ccc1Cl (stereo not shown) [I-41, 2-chloro-5-[[5-(3,5-dichloro-4-fluoro-phenyl)-5-(trifluoromethyl)-4H-isoxazol-3-yl]amino]-N-[1-(difluoromethylsulfonyl)azetidin-3-yl]benzamide]
≥ 75%: mortality at 300 ppm (Plutella xylostella) | mortality at 300 ppm (Dichromothrips corbetti) | mortality at 300 ppm (Spodoptera eridania)

CC(C)(C#N)NC(=O)c1cc(NC2=NOC(c3cc(Cl)c(F)c(Cl)c3)(C(F)(F)F)C2)ccc1Cl (stereo not shown) [I-58, 2-chloro-N-(1-cyano-1-methyl-ethyl)-5-[[5-(3,5-dichloro-4-fluoro-phenyl)-5-(trifluoromethyl)-4H-isoxazol-3-yl]amino]benzamide]
≥ 75%: mortality at 300 ppm (Plutella xylostella) | mortality at 300 ppm (Dichromothrips corbetti) | mortality at 300 ppm (Spodoptera eridania)

CCOC(=O)N(C1=NOC(c2cc(Cl)cc(Cl)c2)(C(F)(F)F)C1)c1ccc(Cl)c(C(=O)N(C(=O)OCC)C2(C#N)CC2)c1 (stereo not shown) [I-100, ethyl N-[4-chloro-3-[(1-cyanocyclopropyl)-ethoxycarbonyl-carbamoyl]-phenyl]-N-[5-(3,5-dichlorophenyl)-5-(trifluoromethyl)-4H-isoxazol-3-yl]carbamate]
≥ 75%: mortality at 300 ppm (Bemisia argentifolii) | mortality at 300 ppm (Plutella xylostella) | mortality at 300 ppm (Dichromothrips corbetti) | mortality at 300 ppm (Spodoptera eridania)

N#CC1(NC(=O)c2c(F)ccc(NC3=NOC(c4cc(Cl)cc(Cl)c4)(C(F)(F)F)C3)c2F)CC1 (stereo not shown) [I-30, N-(1-cyanocyclopropyl)-3-[[5-(3,5-dichlorophenyl)-5-(trifluoromethyl)-4H-isoxazol-3-yl]amino]-2,6-difluoro-benzamide]
≥ 75%: mortality at 2500 ppm (Anthonomus grandis) | mortality at 300 ppm (Plutella xylostella) | mortality at 300 ppm (Dichromothrips corbetti) | mortality at 300 ppm (Spodoptera eridania)

CN(C1=NOC(c2cc(Cl)cc(Cl)c2)(C(F)(F)F)C1)c1ccc(Cl)c(C(=O)NC2(c3cnn(C)c3)CC2)c1 (stereo not shown) [I-125, 2-chloro-5-[[5-(3,5-dichlorophenyl)-5-(trifluoromethyl)-4H-isoxazol-3-yl]-methyl-amino]-N-[1-(1-methylpyrazol-4-yl)cyclopropyl]benzamide]
≥ 75%: mortality at 2500 ppm (Heliothis virescens) | mortality at 2500 ppm (Anthonomus grandis) | mortality at 300 ppm (Plutella xylostella) | mortality at 300 ppm (Dichromothrips corbetti) | mortality at 2500 ppm (Myzus persicae)

N#CC1(NC(=O)c2cc(S(=O)(=O)C3=NOC(c4cc(Cl)cc(Cl)c4)(C(F)(F)F)C3)ccc2Cl)CC1 (stereo not shown) [II-3, 2-chloro-N-(1-cyanocyclopropyl)-5-[[5-(3,5-dichlorophenyl)-5-(trifluoromethyl)-4H-isoxazol-3-yl]sulfonyl]benzamide]
≥ 75%: mortality at 300 ppm (Plutella xylostella)

O=C(NC1(c2ccnnc2)CC1)c1cc(NC2=NOC(c3cc(Cl)cc(Cl)c3)(C(F)(F)F)C2)ccc1Cl (stereo not shown) [I-162, 2-chloro-5-[[5-(3,5-dichlorophenyl)-5-(trifluoromethyl)-4H-isoxazol-3-yl]amino]-N-(1-pyridazin-4-ylcyclopropyl)benzamide]
≥ 75%: mortality at 300 ppm (Bemisia argentifolii) | mortality at 2500 ppm (Anthonomus grandis) | mortality at 300 ppm (Plutella xylostella) | mortality at 2500 ppm (Aedes aegypti) | mortality at 300 ppm (Spodoptera eridania)

O=C(Nc1cnccc1F)c1cc(NC2=NOC(c3cc(Cl)c(F)c(Cl)c3)(C(F)(F)F)C2)ccc1Cl (stereo not shown) [I-62, 2-chloro-5-[[5-(3,5-dichloro-4-fluoro-phenyl)-5-(trifluoromethyl)-4H-isoxazol-3-yl]amino]-N-(4-fluoro-3-pyridyl)benzamide]
≥ 75%: mortality at 300 ppm (Plutella xylostella) | mortality at 300 ppm (Dichromothrips corbetti)
